{
  "source": "patent US20030104490A1",
  "about": "“Assay” (priority 2000, published 2003)",
  "key": {"[1]": {"tested_on": "CHO-T cells expressing an IRAP-GFP construct", "assay": "Insulin-induced translocation of IRAP-GFP (GLUT4 vesicles) to the plasma membrane, immunofluorescence, surface:total IRAP-GFP ratio", "format": "cell-based", "conditions": "unpermeabilised, anti-GFP staining vs GFP fluorescence, 200 nM insulin for 30 min, inhibitor (wortmannin) treatment preceding stimulation, 20 fields of view", "text": "The IRAP-GFP construct used in this example was constructed using an IRAP fragment 66-533 (from the start site to the end of the extracellular ‘stalk’ region) which was generated by PCR using specific primers from a partial cDNA IRAP clone available to the inventors. The resulting fragment was cloned into the pcDNA3 vector using the flanking restriction enzyme sites. GFP3 with a C-terminal myc-tag was also generated by PCR using specific primers and the product cloned into pcDNA3 downstream of the IRAP insert.\nCHO-T cells were transfected or microinjected with the IRAP-GFP construct and 24 h later were stimulated without or with 200 nM insulin for 30 min. This was preceded by treatment with an inhibitor (e.g. wortmannin) of insulin signalling.\nSubsequently cells were fixed and stained with anti-GFP antibodies (Roche) without prior permeabilisation, as described below, in order to visualise GFP exposed on the surface of the plasma membrane only. […]\nThe total IRAP-GFP expression level is given by the level of GFP fluorescence (and this corresponds to the second detection method of the first aspect of the invention). […]\nFluorescence intensity due to IRAP-GFP fluorescence and surface IRAP-GFP immunostaining was then computed from cells imaged in 20 fields of view for each treatment condition. Results are expressed as an average ratio of surface:total IRAP-GFP."}, "[2]": {"tested_on": "3T3-L1 adipocytes microinjected with the IRAP-GFP construct", "assay": "Insulin-induced translocation of GLUT4-containing vesicles (IRAP-GFP) to the plasma membrane in 3T3-L1 adipocytes, confocal microscopy", "format": "cell-based", "conditions": "serum-starved 2 hours, 100 nM insulin for 30 minutes", "method": "3T3-L1 fibroblasts (between passages 4 and 12) were seeded onto 22 mm glass coverslips and allowed to grow to confluence. Differentiation into adipocytes was induced in DMEM containing 10% (v/v) myoclone-plus FCS, 0.25 μM dexamethasone, 0.5 mM isobutylmethylxanthine and 166 nM insulin for 2 days (day 0 to day 2). This medium was replaced with DMEM containing 10% (v/v) myoclone-plus FCS and 166 nM insulin for a further 2 days (day 2 to day 4). From day 4 onwards cells were maintained in DMEM containing 10% (v/v) myoclone-plus FCS, replacing the medium every two days. 3T3-L1 adipocytes were used between day 7 and day 10 after initiation of differentiation.\nDifferentiated 3T3-L1 adipocytes were microinjected with the IRAP-GFP construct used in Example 1 (pcDNA3). […]\nThe total level of the IRAP-GFP expression is indicated by the level of GFP fluorescence detected (this corresponds to the second detection method of the first aspect of the invention). […] The fluorescence intensity due to IRAP-GFP fluorescence and surface IRAP-GFP immunostaining was computed for each individual cell, using Leica Confocal Software, and a background fluorescence figure subtracted. For each cell, the ratio of background corrected surface:total IRAP-GFP was calculated. […] Each data point represents the red:green fluorescence ratio for one cell."}},
  "data": [
    {"molecule": "COC[C@H]1OC(=O)c2coc3c2[C@@]1(C)C1=C(C3=O)[C@@H]2CCC(=O)[C@@]2(C)C[C@H]1OC(C)=O", "note": "[Wortmannin, wortmannin, reference compound]", "values": [
      {"measurement": "MEAN R/G (average ratio of surface:total IRAP-GFP)", "setting": "[1]", "value": 0.363}
    ]},
    {"molecule": "insulin", "values": [
      {"measurement": "MEAN R/G (average ratio of surface:total IRAP-GFP)", "setting": "[1]", "value": 1.252},
      {"measurement": "translocation of IRAP-GFP to the plasma membrane (red:green ratio surface:total IRAP-GFP per cell, FIG. 4)", "setting": "[2]", "value": "a significant proportion of cell undergo translocation"}
    ]}
  ]
}
